Data as given in article PMC8710297, “Identification of potent SENP1 inhibitors that inactivate SENP1/JAK2/STAT signaling pathway and overcome platinum drug resistance in ovarian cancer” (Clinical and Translational Medicine, 2021).

Experiments:
[1] = tested on: STAT3; assay: pSTAT3 levels in IGROV1 CR cells (immunoblotting); assay type: cell-based; conditions: Homo sapiens, IGROV-1, 48 h, read-out: IC50 (pSTAT3 levels, Figure 3C)
Method: FIGURE 3 Identification of UAMMC9 from UA derivatives. (A) Synthesis of UA derivatives. Reagents and conditions: (i) Ac2O, DMAP, Pyridine, r.t.; (ii) Oxalyl chloride, CH2Cl2, r.t., overnight; (iii) amines, TEA, r.t., 0.5–4 h; (iv) NaOH a.q., MeOH/THF, r.t.; (v) amines, MeOH, reflux; (vi) K2CO3, DMF, 60°C. The detail of synthesis was included in supplemental materials. (B) UAMMC9 inhibits Sentrin‐specific protease 1 (SENP1) activity in cells. (C) IGROV1 CR cells treated with indicated UAMMC9 for 48 h. Cells were then harvested and lysates were resolved on sodium dodecyl sulphate‐polyacrylamide gel electrophoresis, followed by immunoblotting for indicated proteins. (D) Cellular thermal shift assay to examine the interaction of UAMMC9 with SENP1. IGROV1 CR cells were incubated with DMSO or UAMMC9 for 4 h before treatment as in Figure 2A. (E) In vitro thermal shift assay to analyze the interactions of UAMMC9 with purified GST‐SENP1(C603A). Stability of SENP1(C603A) was analyzed by using Western blot against SENP1 antibody. […]
Figue S2. […] (B) Quantification of SENP1 in h ib iti o n by UAMMC9 in vitro and in vivo shown in A and Figure 3B . […] SE N P 1 stability wa s analyzed by using We s t e r n blot aga inst SE NP 1 antibody.
(D) Quantification of no n‐denatured SENP1 frac ti on sh own in C. (E) Quantification of th e levels of pSTAT3 as shown in Fi g u e 3C. […]

[2] = tested on: STAT3; assay: IHC staining of pSTAT3 in xenograft tumor samples; assay type: in vivo, mice; conditions: IGROV1 CR xenograft tumor samples
Method: Cell viability was measured by SRB assay. […] Data were represented as mean ± SD (n = 3). (B) Colony formation assay in cells treated as indicated. […] (D) Growth curves of xenograft tumors are shown in (C). Data are represented as means ± SEM, n = 6 mice/group. **p < 0.01. […] (F) IGROV1 CR xenograft tumor growth curve by indicated treatments. Data are represented as means ± SD, n = 6 tumors/group. **p < 0.01. (G) Immunohistochemistry (IHC) staining against pSTAT3 antibodies of tumor samples from four groups of mice (magnification, 200x) (Upper).
Immun ohistochemical (IHC) sta i n in g an d scor ing we r e performed as prev iou sl y described (2).
The qu anti ficatio n of immunohistochemical sta in ing wa s scored blindly at lea st by two independent obser vers. Antibodies used in IHC as say are: SENP1 (ab108981, Abcam, Cambridge, UK), JA K 2 , p‐STAT 3 (ab76315; Abcam), Bc l‐xL (2764S; Cell Signaling Technology) (#3776, Cell Signaling Technologies, Danvers, MA, USA).
11. Cellular thermal shift assay and in vitro thermal shift assay
Cellular thermal shift assay was as previously described (5). Briefly, cells were pretreated with MG132 (10 µM, 1 hour) then incubated wi th DMSO, Mc, UA or UAMMC9 (2 µM) for 4 hours. […]

IC50 [1]: 388 nM
SMILES: C[C@H]1[C@H](C)CC[C@]2(C(=O)NCC(=O)N(C)CCO)CC[C@]3(C)C(=CC[C@@H]4[C@@]5(C)CC[C@H](O)C(C)(C)[C@@H]5CC[C@]43C)[C@H]12 [UAMMC9]
activation of STAT3 in vivo (pSTAT3 IHC) [2]: inhibit the activation of STAT3
